Measured values: patent publication US20150290294A1, “METHODS FOR INHIBITING PLATELET AGGREGATION USING GLP-1 RECEPTOR AGONISTS” (priority 2012, published 2015)
Ends that are not written are not given here.

Columns and labels:
[1] = tested on: human gel-filtered platelets; assay: Thrombin-induced platelet aggregation (aggregometer); assay type: cell-based; conditions: for effect on human platelet aggregation after thrombin stimulation: 10 nM each, 0.5 U thrombin; for effect on human platelet aggregation after thrombin stimulation / effect on thrombin-induced human platelet aggregation vs PBS control: 15 min 37 °C; for effect on thrombin-induced human platelet aggregation vs PBS control: 100 pM-1 uM (10^-10 to 10^-6 M)
Description: Platelets were then stimulated with thrombin and aggregation was measured using an aggregometer.

platelets = conditions: associated with inhibitory effect on intracellular free calcium and tyrosine phosphorylation; cited from earlier work
MEG-01 cells = assay: Intracellular cAMP EIA assay; assay type: cell-based, human
Description: An EIA kit (Cayman Chemicals) was employed to measure intracellular cAMP levels. […] 3-isobutyl-1-methylxanthine (IBMX) was added to each well at a concentration of 0.5 μM and allowed to incubate for 10 min at 37° C. to inhibit phosphodiesterase activity. As a positive control for cAMP generation in MEG-01 cells, PGI2 was added at a concentration of 0.02 ng/ml to control wells and incubated for 10 min at 37° C. PBS was used as a negative control. After incubation, cells were lysed by adding EDTA to a concentration of 10 mM. Lysed cells were transferred to 1.5 ml eppendorf tubes and boiled for 5 min at 95° C. Samples were spun down at 10000 xg for 15 min at 4° C. Supernatant was removed and frozen at −80° C. The cAMP EIA kit assay was then carried out according to manufacturer's instructions.
Given the limited specificity of Abs raised against GPCRs, RT-PCR was performed on RNA from MEG-01 cells with primers designed to yield full-length human GLP-1R cDNA.

With “GLP-1(9-36) (EGTFTSDVSSYLEGQAAKEFIAWLVKGR-NH2)” the “effect on human platelet aggregation after thrombin stimulation” value (“effect on human platelet aggregation” for short) [1] was “delayed human platelet aggregation” and the “effect on human platelet aggregation” value ([1]; listed as GLP-1(9-36)^NH2) was “inhibited human platelet aggregation, but to a lesser extent than GLP-1(7-36)^NH2”.
For `N[C@@H](CC(=O)N1CCn2c(nnc2C(F)(F)F)C1)Cc1cc(F)c(F)cc1F` [sitagliptin], the anti-platelet activity (platelets) is listed as “exhibited anti-platelet activity”.
For GLP-1(7-36), the “effect on thrombin-induced human platelet aggregation vs PBS control” value ([1]; thrombin 0.125 U) was “delayed and reduced”, the “effect on thrombin-induced human platelet aggregation vs PBS control” value ([1]; thrombin 0.125 U, listed as GLP-1) was “delayed and reduced platelet aggregation” and the “effect on human platelet aggregation” value [1] was “delayed human platelet aggregation”. For the same compound, the “total area under curve of aggregation” value ([1]; between 0.1 nM and 100 nM, thrombin 0.125 U, not significant, n=3) was “some inhibition of platelet activity” and the “intracellular cAMP, qualitative” value (MEG-01 cells; 15 min incubation, 100 pM to 100 nM, n=3) was “dose-dependent increase in cAMP”.
For `CCCCC[C@H](O)/C=C/[C@@H]1[C@H]2C/C(=C/CCCC(=O)O)O[C@H]2C[C@H]1O` [PGI2, prostacyclin PGI2, reference compound], the “cAMP response (positive control)” value (MEG-01 cells; PGI2 0.02 ng/ml, 10 min 37 °C) was 16 fold.
